This is an account of results in patent publication US10420786B2, “Compositions for use in cardioplegia comprising esmolol and adenosine” (AOP ORPHAN IP AG, priority 2009, dated 2019).

For data set [1] the following is noted: pH 7.0; cited from earlier work.
The subject of data set [2] is Langendorff perfused rat heart. Description: Reversibility of esmolol: treatment for 10 minutes then washout without ischaemia. As to the method: All the following experiments performed in a Langendorff perfused rat heart.
The first study is to determine the reversibility of esmolol at different concentrations after treatment with esmolol for 10 minutes then washout without ischaemia and LVDP was measured 9 minutes after starting the treatment and 3 minutes and 15 minutes after washing out the drug. The following doses were studied 0.03, 0.1, 0.3, 1, 3 mM. (n=5 each group)
It is therefore decided that esmolol concentration between 0.3 and 1 mM offers reasonable arresting effect with good reversibility profile.

The next data set deals with heart. The data set is described as follows: Arrest by esmolol on its own (applicant's finding). As to conditions: esmolol 0.75 mmol/L on its own.
For data set [3] the following is noted: cited from earlier work.
In data set [4] the test system is Langendorff perfused rat hearts. The following applies: cited from earlier work.

Read-outs that look alike come from different tables or passages of the source.

As to `CC(C)NCC(O)COc1cccc2ccccc12` (stereo not drawn) [propranolol], in data set [1], the “partition coefficient (octanol/water)” value is reported as 17.0.
With `COC(=O)CCc1ccc(OCC(O)CNC(C)C)cc1.Cl` (racemic) [Esmolol, (±)-Methyl p-[2-hydroxy-3-(isopropylamino)propoxy] hydrocinnamate hydrochloride], the “reversibility (LVDP recovery) profile after washout” value in data set [2] (0.3 mM compared with 1 mM esmolol) is reported as “better reversibility (LVDP recovery) profile”. For the same molecule, in data set [2] (esmolol alone, doses 0.03, 0.1, 0.3, 1, 3 mM), the “esmolol concentration required to induce arrest” value is 1 mM. Moreover, the “induction of effective arrest” value in the data set on heart was “not sufficient to induce effective arrest”. The “partition coefficient (octanol/water)” value in data set [1] was 0.42. For the same molecule, in data set [3], the solubility in alcohol result is “freely soluble” and the solubility in water entry was “very soluble”. The reversibility of arrest result in data set [4] (esmolol 0.75 mmol/L) was “easily reversible”. The reversibility of arrest result in data set [4] (esmolol 1.5 mmol/L) is “slowly reversible with poor recovery”. In addition, the “esmolol concentration that can cause cardiac arrest” value in data set [4] (in-vitro studies) is listed as “higher than 1 mmol/L”.
Take `Nc1ncnc2c1ncn2[C@@H]1O[C@H](CO)[C@@H](O)[C@H]1O` [Adenosine, (2R,3R,4S,5R)-2-(6-amino-9H-purin-9-yl)-5-(hydroxymethyl)oxolane-3,4-diol]: in data set [3], the solubility in alcohol result is listed as “practically insoluble” and the solubility in water result is given as “soluble”.
